Experimental data as given in US11230524B2, “Myocyte enhancer factor 2 (MEF2) modulators” (STANDARD LLC, priority 2017, dated 2022).

Target: MEF2D/HDAC4 protein-protein interactions (Homo sapiens (Human), UniProt Q14814)
Assay: Mammalian two-hybrid assay, inhibition of MEF2D and HDAC4 protein interactions (luciferase reporter in HeLa cells)
Type: cell-based
Conditions: HeLa cells co-transfected with GAL4-MEF2D, HDAC4-VP16 and Gal4Luc; overnight treatment; luciferase normalized to Renilla
Excerpt: Detection of MEF2D and HDAC4 interactions. In this mammalian two-hybrid assay, HDAC4 and MEF2D proteins were used. […] Human epithelial carcinoma cells (HeLa) were co-transfected with the two DNA constructs (GAL4-MEF2D and HDAC4-VP16) and a reporter plasmid (Gal4Luc). […] MEF2D and HDAC4 protein interactions were detected as a result of the GAL4-MEF2D and HDAC4-VP16 protein complex binding a DNA promoter on the reporter plasmid (Gal4Luc) and driving cellular expression of a luciferase gene. The measured luciferase protein signal was proportional to the amount of MEF2D and HDAC4 protein interactions occurring with the cell.
The HDAC4 fragment lacked the catalytic domain so that the deacetylase activity was excluded from the assay.
Detection of inhibition of MEF2D and HDAC4 interactions. Next, the assay was used to test whether the compounds could disrupt the interactions between MEF2D and HDAC4. After co-expressing the GAL4-MEF2D and HDAC4-VP16 DNA constructs and reporter plasmid, the HeLa cells were treated with a test compound (10 μM) overnight. Cells transfected with the positive control GAL4VP16 fusion construct and reporter plasmid were also treated with the test compound (10 μM) overnight. As another control, DMSO was added (but kept below 0.2% V/V) to cells transfected with the positive GAL4VP16 fusion construct or the GAL4-MEF2D and HDAC4-VP16 DNA constructs. A luciferase assay was performed as described above according to the manufacturer's protocol (Promega). The luciferase response was normalized against the Renilla Luciferase as an internal control.
The relative activity and IC50 calculations. […] The relative activity, I, was the ratio of former to later, i.e. X/Y, expressed in percentile. […] The IC50 was the concentration of the compounds when X/Y equals 50.

MEF2D/HDAC4 protein-protein interactions, sequence (Q14814 whole entry, species assumed): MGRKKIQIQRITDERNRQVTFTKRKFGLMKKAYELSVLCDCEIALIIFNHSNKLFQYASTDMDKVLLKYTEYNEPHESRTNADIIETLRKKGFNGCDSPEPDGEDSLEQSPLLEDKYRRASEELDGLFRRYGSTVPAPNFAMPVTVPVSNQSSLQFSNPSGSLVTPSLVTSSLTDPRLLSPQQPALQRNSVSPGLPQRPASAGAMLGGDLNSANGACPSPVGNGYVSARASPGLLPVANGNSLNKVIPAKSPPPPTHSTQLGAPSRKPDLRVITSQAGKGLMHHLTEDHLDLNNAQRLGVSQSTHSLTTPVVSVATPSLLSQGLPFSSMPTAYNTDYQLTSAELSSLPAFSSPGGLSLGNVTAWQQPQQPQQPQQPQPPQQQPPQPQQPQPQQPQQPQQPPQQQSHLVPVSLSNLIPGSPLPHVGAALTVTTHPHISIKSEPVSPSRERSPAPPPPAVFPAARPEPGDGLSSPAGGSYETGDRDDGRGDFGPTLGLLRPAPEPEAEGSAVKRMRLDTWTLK

Compound	IC50 [nM]
Nc1ccccc1NC(=O)/C=C/c1cccc(CNc2cccc(Br)c2)c1 [ST2]	5940
COc1cccc(NCc2cccc(/C=C/C(=O)Nc3ccccc3N)c2)c1 [ST3]	4870
CC(C)Oc1cccc(NCc2cccc(/C=C/C(=O)Nc3ccccc3N)c2)c1 [ST5]	191000
Nc1ccccc1NC(=O)/C=C/c1cccc(CNc2cccc(N3CCCCC3)c2)c1 [ST6]	2460
Nc1ccccc1NC(=O)/C=C/c1cccc(CNc2cccc(N3CCOCC3)c2)c1 [ST8]	2400
CCN(CC)c1cccc(NCc2cccc(/C=C/C(=O)Nc3ccccc3N)c2)c1 [ST9]	3530
Nc1ccccc1NC(=O)/C=C/c1cccc(CNc2cccc(N3CCCC3)c2)c1 [ST10]	2510
Nc1ccccc1NC(=O)/C=C/c1ccc(F)c(CNc2ccccc2)c1 [ST11]	18000
COc1cccc(NCc2ccc(F)c(/C=C/C(=O)Nc3ccccc3N)c2)c1 [ST12]	3360
O=C(/C=C/c1cccc(CNc2ccccc2)c1)NO [ST15]	920
O=C(/C=C/c1cccc(CNc2cccc(OC3CC3)c2)c1)NO [ST16]	380
O=C(/C=C/c1cccc(CNc2ccc(F)cc2)c1)NO [ST17]	990
O=C(/C=C/c1cccc(CNc2cccc(F)c2)c1)NO [ST18]	1030
COc1cccc(NCc2cccc(/C=C/C(=O)NO)c2)c1 [ST19]	320
CSc1cccc(NCc2cccc(/C=C/C(=O)NO)c2)c1 [ST20]	320
CCOc1cccc(NCc2cccc(/C=C/C(=O)NO)c2)c1 [ST21]	350
CCc1cccc(NCc2cccc(/C=C/C(=O)NO)c2)c1 [ST22]	540
N#Cc1cccc(NCc2cccc(/C=C/C(=O)NO)c2)c1 [ST23]	420
O=C(/C=C/c1cccc(CNc2ccc(F)c(F)c2)c1)NO [ST24]	1020
O=C(/C=C/c1cccc(CNc2ccc(F)cc2F)c1)NO [ST25]	950
O=C(/C=C/c1cccc(CNc2ccc(Cl)cc2)c1)NO [ST26]	790

Compound	IC50 [nM]
CC(C)Oc1cccc(NCc2cccc(/C=C/C(=O)NO)c2)c1 [ST27]	350
O=C(/C=C/c1cccc(CNc2cccc(OC3CCC3)c2)c1)NO [ST28]	670
O=C(/C=C/c1cccc(CNc2cccc(OC3CCCC3)c2)c1)NO [ST29]	1180
CN(C)c1ccc(/C=C2C=C(/C=C/C(=O)NO)CCC/2)cc1 [ST30]	> 20000
O=C(/C=C/c1cccc(CNc2cccc(OC3COC3)c2)c1)NO [ST31]	560
O=C(/C=C/c1cccc(CNc2cccc(N3CCOCC3)c2)c1)NO [ST32]	250
CN(C)c1cccc(NCc2cccc(/C=C/C(=O)NO)c2)c1 [ST33]	370
CCCCc1cccc(NCc2cccc(/C=C/C(=O)NO)c2)c1 [ST34]	2030
CCOc1cccc(NCC2C=C(/C=C/C(=O)NO)CCC2)c1 (stereo not drawn) [ST35]	4720
COc1ccc(NCC2C=C(/C=C/C(=O)NO)CCC2)cc1 (stereo not drawn) [ST36]	1880
O=C(/C=C/c1cccc(CNc2cccc(N3CCCC3)c2)c1)NO [ST37]	590
CCN(C)c1cccc(NCc2cccc(/C=C/C(=O)NO)c2)c1 [ST38]	260
O=C(/C=C/c1cccc(CNc2cccc(N3CCCCC3)c2)c1)NO [ST39]	310
O=C(/C=C/c1cccc(CNc2cccc(N3CCNCC3)c2)c1)NO [ST40]	260
CCN(CC)c1cccc(NCc2cccc(/C=C/C(=O)NO)c2)c1 [ST41]	1160
CN(C)Cc1ccc(NCc2cccc(/C=C/C(=O)NO)c2)cc1 [ST42]	70
O=C(/C=C/c1cccc(CNc2cccc(C3COC3)c2)c1)NO [ST43]	270
COc1cccc(NCc2cc(F)cc(/C=C/C(=O)NO)c2)c1 [ST44]	380
O=C(/C=C/c1cccc(CNc2cccc(OCC(F)F)c2)c1)NO [ST45]	560
O=C(/C=C/c1cccc(CNc2cccc(OCC(F)(F)F)c2)c1)NO [ST46]	670
Nc1ccccc1NC(=O)/C=C/c1cccc(CNc2nccc(-c3cccnc3)n2)c1 [ST47]	1490
